# Laboratory results published in patent US9051345B2, “Metalloinsertor complexes targeted to DNA mismatches” (CALIFORNIA INSTITUTE OF TECHNOLOGY, priority 2011, dated 2015).
# Key:
# Type in all cases: cell-based, human
# HCT116O cells [1] = assay: MTT cytotoxicity assay
# Protocol: Cytotoxicity assays were performed as described in Mosmann, 1983, J. Immunol. Methods, 65, 55-63, the entire contents of which is incorporated herein by reference. HCT116N and HCT116O cells were plated in 96-well plates at 50,000 cells/well and incubated with rhodium for the durations specified. After incubation with the indicated rhodium complexes, cells were labeled with MTT for 4 hours at 37° C. under 5% CO2 and humidified atmosphere. The resulting formazan crystals were dissolved with solubilizing reagent purchased from Roche according to the manufacturer's instructions. The dissolved formazan was quantified as the absorbance at 570 nm minus the background absorbance at 690 nm. Percent viability was determined as the ratio of the amount of formazan in the treated cells to that of the untreated cells.
# In order to elucidate the mechanism of action for the cytotoxicity caused by a metalloinsertor complex of Formula I, the MTT cytotoxicity assay was repeated in the absence and presence of the pan-caspase inhibitor Z-VAD-FMK. This inhibitor works by irreversibly binding to the active site of caspases which participate in the apoptotic pathway. […] The HCT116N and HCT116O cell lines were treated with 0-30 μM of the [Rh(HDPA)2chrysi]^3+ complex for 24-72 hours. […]
# In order to determine the mechanism of action for cytotoxicity caused by a metalloinsertor complex of Formula I, the MTT cytotoxicity assay was repeated in conjunction with a panel of poly-ADP ribose polymerase (PARP) inhibitors: DPQ, 3-AB, 4-AN, and ABT-888, as described in Costantino et al., 2001, J. Med. Chem., 44, 3786-3794; Purnell et al., 1980, Biochem. J. 185, 775-777; Banasik et al., 1992, J. Biol. Chem. 267, 1569-1575; and Donawho et al., 2007, Clin. Cancer Res., 13, 2728-2737, the entire contents of all of which are incorporated herein by reference. The HCT116N and HCT116O cell lines were treated with 0 or 20 μM of the [Rh(HDPA)2chrysi]^3+ complex for 72 hours, with or without one of the four inhibitors. The inhibitor 3,4-Dihydro-5[4-(1-piperindinyl)butoxy]-1(2H)-isoquinoline (DPQ) was added to a final concentration of 0, 25, or 50 μM; the inhibitor 3-aminobenzamide (3-AB) was added to a final concentration of 0, 2, or 3 mM; the inhibitor 4-amino-1,8-napthalimide (4-AN) was added to a final concentration of 0, 10, or 20 μM; and the inhibitor 2-((R)-2-Methylpyrrolidin-2-yl)-1H-benzimidazole-4-carboxamide (ABT-888) was added to a final concentration of 0, 5, or 10 μM. […] For example, in the case of the compound DPQ, this difference was 43±2.7% without inhibitor and 0.6±3.0% with inhibitor.
# [2] = system: HCT116N and HCT116O cells; assay: ICP-MS assay for cellular rhodium levels, whole cell lysates; settings: 10 μM; 48 hours; compared to [Rh(bpy)2chrysi]^3+ or [Rh(NH3)4chrysi]^3+
# Protocol: To assay the subcellular localization of the rhodium complexes, an inductively coupled plasma mass spectrometry (ICP-MS) assay was used to quantify the uptake of the complexes in both whole cell extracts and nuclear and mitochondrial fractions.
# Each cell line was treated with 10 μM of each rhodium complex as indicated in FIG. 33A (except [Rh(DIP)2(chrysi]^3+ which was administered at 2 μM) for 1, 3, 6, 12, 24, or 48 hours. After rhodium incubation, the cells were harvested from adherent culture by trypsinization, washed with cold PBS, and counted by hemacytometer. The samples were pelleted and resuspended in 1% HNO3 (v/v), homogenized by three freeze/thaw cycles in liquid nitrogen, and analyzed for rhodium content on an HP-4500 ICP-MS unit. Rhodium counts were normalized to the number of cells counted in each sample before lysate preparation. Standard errors for three independent experiments are shown.
# HCT116N cells = assay: Cell death mode flow cytometry assay (YO-PRO-1 / PI dye exclusion); settings: 20 μM, 72 hours, untreated 62±0.6%
# Description: (§1) To characterize the cell death occurring in response to rhodium treatment, a dye exclusion flow cytometry assay was used as described in Idziorek et al., 1995 J. Immunol. Methods, 185, 249-258, the entire contents of which is incorporated herein by reference. The assay differentiates between live cells, dead cells, and cells undergoing apoptosis or necrosis through concurrent staining with propidium iodide (a dead cell permeable dye) and YO-PRO-1 (an apoptotic cell permeable dye). By plotting the fluorescence of the YO-PRO-1 channel against the PI channel, a pattern emerges. Healthy cells are seen in the lower lefthand corner of the plot in FIGS. 36A-36D. […] Dead cells admit both dyes and are therefore seen in the upper righthand quadrant of the image. Upon flow cytometry analysis, cells can be classified as live, apoptotic, necrotic, or dead by defining regions in the fluorescence plane corresponding to each category.
# (§2) The HCT116N and HCT116O cell lines were incubated with 0-25 μM of [Rh(HDPA)2chrysi]^3+ for 24-72 hours. After harvesting the cells and staining with both PI and YO-PRO-1, the cells were analyzed by flow cytometry to obtain raw fluorescence data. Representative data for 20 μM rhodium treatment for 72 hours are shown. YO-PRO-1 fluorescence is shown on the y-axis, and PI fluorescence is shown on the x-axis. The raw data were analyzed by gating the fluorescence events into one of four categories, depending on the fluorescence levels of the two dyes. FIGS. 37A-37B also show histograms of live, apoptotic, necrotic, and dead cells for the HCT116N and HCT116O cell lines based on the flow cytometry. Treatment with the indicated rhodium complex was either 15 or 20 µM [Rh(HDPA)2chrysi]^3+ for 72 hours.
# (§3) After 24, 48, or 72 hour incubation with the selected rhodium complex, cells were harvested from adherent culture by trypsinization and washed with cold PBS, and centrifuged at 2,000 rpm for 5 minutes. The resultant pellets were resuspended in PBS to a concentration of 10^6 cells/mL and stained with propidium iodide to a final concentration of 1 μg/mL and with YO-PRO-1 (an apoptotic cell permeable dye) to a final concentration of 200 nM for 30 minutes prior to analysis by flow cytometry.
# HCT116O cells [3] = assay: as above; settings: for mode of cell death: YO-PRO-1 and PI, HCT116O versus HCT116N
# Description: as §1, §2, §3
substance,measurement,setting,value
[Rh(HDPA)2chrysi]^3+,caspase dependence of the selective cell death,HCT116O cells [1]; MTT with or without Z-VAD-FMK,caspase-independent
same,"number of viable HCT116O cells, % of untreated controls","HCT116O cells [1]; MTT, 20 μM, 72 hours",37±4.4%
same,"difference between percentage of viable HCT116N cells and percentage of viable HCT116O cells, with DPQ","HCT116O cells [1]; MTT, 20 μM, 72 hours, with PARP inhibitor DPQ",0.6±3.0%
same,difference between percentage of viable HCT116N cells and percentage of viable HCT116O cells,"HCT116O cells [1]; MTT, 20 μM, 72 hours, without inhibitor",43±2.7%
same,cell viability HCT116O with caspase inhibitor,"HCT116O cells [1]; MTT, 30 μM metal complex, 72 hours, with Z-VAD-FMK at 20 M (so in the source)",9.8±7.8%
same,cell viability HCT116O,"HCT116O cells [1]; MTT, 30 μM metal complex, 72 hours, without inhibitor",9.7±4.4%
same,toxicity in MMR-deficient HCT116O versus HCT116N cells at 48 hours,"HCT116O cells [1]; MTT, 48 hours",enhance toxicity in the MMR-deficient HCT116O cells
same,cell viability HCT116O without inhibitor (40 μM caspase inhibitor experiment),"HCT116O cells [1]; MTT, rhodium alone, control arm of the 40 μM Z-VAD-FMK experiment",16±10%
same,cell viability HCT116O with caspase inhibitor 40 μM,"HCT116O cells [1]; MTT, rhodium plus Z-VAD-FMK 40 μM",28±3.7%
same,cellular uptake (rhodium accumulation in whole cell lysates),[2],increase in cellular uptake
same,live cells HCT116N after treatment,HCT116N cells,54±5.1%
same,live cells HCT116O after treatment,"HCT116O cells [3]; 20 μM, 72 hours, untreated 79±3.8%",37±5.3%
same,mode of cell death,HCT116O cells [3],induces necrosis preferentially in the MMR-deficient HCT116O cell line
same,mode of cell death,HCT116O cells [3]; listed as [Rh(HDPA)2chrysi]3^+,necrotic rather than apoptotic pathway
same,change in percentage of cells in the apoptotic region,HCT116O cells [3]; either cell line,no significant change
